ChEMBL document CHEMBL4507291 (2021)

Assays:
[1] = target: T1, MAP kinase-activated protein kinase 5 (Homo sapiens) (UniProt Q8IW41)
T1 sequence (whole entry): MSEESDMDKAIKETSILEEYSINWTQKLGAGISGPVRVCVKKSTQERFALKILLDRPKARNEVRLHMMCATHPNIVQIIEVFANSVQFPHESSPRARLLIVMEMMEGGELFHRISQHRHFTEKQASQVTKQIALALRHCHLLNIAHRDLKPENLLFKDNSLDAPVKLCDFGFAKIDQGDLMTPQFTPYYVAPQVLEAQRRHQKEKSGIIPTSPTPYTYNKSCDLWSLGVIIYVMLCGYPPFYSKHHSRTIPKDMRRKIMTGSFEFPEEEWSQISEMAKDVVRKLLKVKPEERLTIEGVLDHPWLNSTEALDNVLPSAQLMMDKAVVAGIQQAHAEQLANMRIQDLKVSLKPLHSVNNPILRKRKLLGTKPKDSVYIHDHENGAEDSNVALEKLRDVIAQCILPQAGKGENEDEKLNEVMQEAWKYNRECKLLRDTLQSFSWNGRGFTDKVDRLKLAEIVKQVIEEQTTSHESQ

[2] = target: Serine/threonine-protein kinase N2 (Homo sapiens) (UniProt Q16513)
[3] = target: Calcium/calmodulin-dependent protein kinase type II subunit delta (Homo sapiens) (UniProt Q13557)
[4] = target: Vascular endothelial growth factor receptor 3 (Homo sapiens) (UniProt P35916)
[5] = target: Serine/threonine-protein kinase/endoribonuclease IRE1 (Homo sapiens) (UniProt O75460)
[6] = target: T2, Megakaryocyte-associated tyrosine-protein kinase (Homo sapiens) (UniProt P42679)
T2 sequence (whole entry): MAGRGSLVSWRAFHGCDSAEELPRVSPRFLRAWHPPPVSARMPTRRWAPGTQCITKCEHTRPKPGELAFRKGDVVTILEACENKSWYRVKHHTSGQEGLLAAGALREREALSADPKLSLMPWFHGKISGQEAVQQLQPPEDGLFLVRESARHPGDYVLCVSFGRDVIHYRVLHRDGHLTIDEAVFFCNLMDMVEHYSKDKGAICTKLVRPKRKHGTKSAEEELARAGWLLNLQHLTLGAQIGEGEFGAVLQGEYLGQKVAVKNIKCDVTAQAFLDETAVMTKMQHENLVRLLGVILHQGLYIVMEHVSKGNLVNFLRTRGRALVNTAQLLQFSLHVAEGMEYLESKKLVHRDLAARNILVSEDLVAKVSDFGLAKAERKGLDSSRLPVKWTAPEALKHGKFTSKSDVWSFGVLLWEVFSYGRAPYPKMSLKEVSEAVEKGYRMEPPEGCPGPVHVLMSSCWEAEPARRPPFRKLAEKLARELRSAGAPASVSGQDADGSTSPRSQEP

[7] = tested on: Epidermal growth factor receptor (Homo sapiens), P00533 [T790M]
[8] = tested on: Receptor-type tyrosine-protein kinase FLT3 (Homo sapiens), P36888 [D835V]
[9] = target: Serine/threonine-protein kinase MRCK beta (Homo sapiens) (UniProt Q9Y5S2)
[10] = target: Receptor tyrosine-protein kinase erbB-2 (Homo sapiens) (UniProt P04626)
[11] = target: Ribosomal protein S6 kinase alpha-1 (Homo sapiens) (UniProt Q15418)
[12] = target: Muscarinic acetylcholine receptor M3 (Homo sapiens) (UniProt P20309); settings: Compound concentration 10.0 uM
[13] = target: Cyclin-dependent kinase 14 (Homo sapiens) (UniProt O94921)
Chain of Cyclin-dependent kinase 14 (Homo sapiens) (O94921 whole entry): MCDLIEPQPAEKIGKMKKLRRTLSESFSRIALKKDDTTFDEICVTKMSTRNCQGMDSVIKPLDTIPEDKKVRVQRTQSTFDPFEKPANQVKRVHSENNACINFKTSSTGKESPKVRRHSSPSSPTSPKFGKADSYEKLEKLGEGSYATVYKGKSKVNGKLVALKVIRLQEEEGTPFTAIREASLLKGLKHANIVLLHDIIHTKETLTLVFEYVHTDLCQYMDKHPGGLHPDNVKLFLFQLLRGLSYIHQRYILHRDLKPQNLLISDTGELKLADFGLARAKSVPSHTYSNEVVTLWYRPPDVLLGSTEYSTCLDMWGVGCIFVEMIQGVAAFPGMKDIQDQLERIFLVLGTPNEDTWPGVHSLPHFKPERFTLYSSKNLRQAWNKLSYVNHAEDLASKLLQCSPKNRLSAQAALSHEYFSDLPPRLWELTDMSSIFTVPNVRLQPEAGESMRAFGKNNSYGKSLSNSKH

[14] = target: Sigma intracellular receptor 2 (Homo sapiens, UniProt Q5BJF2); experiment: GPCRScan assay: inhibition of Sigma 2; design: radioligand conc. used [nm] 5.0, parental cells HEKT
Chain of Sigma intracellular receptor 2 (Q5BJF2 whole entry): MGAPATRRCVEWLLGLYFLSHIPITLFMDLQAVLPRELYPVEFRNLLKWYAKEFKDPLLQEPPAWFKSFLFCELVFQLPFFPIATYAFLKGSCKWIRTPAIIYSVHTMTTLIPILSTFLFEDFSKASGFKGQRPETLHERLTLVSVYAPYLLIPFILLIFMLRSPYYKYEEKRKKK

[15] = target: Mitogen-activated protein kinase kinase kinase 13 (Homo sapiens) (UniProt O43283)
[16] = target: Calcium/calmodulin-dependent protein kinase kinase 1 (Homo sapiens) (UniProt Q8N5S9)
Chain of Calcium/calmodulin-dependent protein kinase kinase 1 (Homo sapiens) (Q8N5S9 whole entry, looked up): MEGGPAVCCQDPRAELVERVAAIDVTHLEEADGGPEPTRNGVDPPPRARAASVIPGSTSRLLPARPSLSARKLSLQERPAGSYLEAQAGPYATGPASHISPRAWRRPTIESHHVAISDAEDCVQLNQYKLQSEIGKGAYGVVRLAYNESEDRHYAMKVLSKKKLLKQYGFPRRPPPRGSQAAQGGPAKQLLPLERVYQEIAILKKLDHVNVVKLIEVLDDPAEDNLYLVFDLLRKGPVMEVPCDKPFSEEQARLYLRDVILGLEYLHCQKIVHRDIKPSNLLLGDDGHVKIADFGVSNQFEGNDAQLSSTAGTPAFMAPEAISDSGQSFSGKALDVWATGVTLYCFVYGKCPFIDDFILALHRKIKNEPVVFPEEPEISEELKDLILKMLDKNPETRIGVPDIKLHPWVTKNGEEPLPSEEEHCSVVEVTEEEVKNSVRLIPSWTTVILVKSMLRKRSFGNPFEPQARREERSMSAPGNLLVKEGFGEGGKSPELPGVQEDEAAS

[17] = target: Myosin light chain kinase (Homo sapiens) (UniProt Q32MK0)
Chain of Myosin light chain kinase (Homo sapiens) (Q32MK0 whole entry): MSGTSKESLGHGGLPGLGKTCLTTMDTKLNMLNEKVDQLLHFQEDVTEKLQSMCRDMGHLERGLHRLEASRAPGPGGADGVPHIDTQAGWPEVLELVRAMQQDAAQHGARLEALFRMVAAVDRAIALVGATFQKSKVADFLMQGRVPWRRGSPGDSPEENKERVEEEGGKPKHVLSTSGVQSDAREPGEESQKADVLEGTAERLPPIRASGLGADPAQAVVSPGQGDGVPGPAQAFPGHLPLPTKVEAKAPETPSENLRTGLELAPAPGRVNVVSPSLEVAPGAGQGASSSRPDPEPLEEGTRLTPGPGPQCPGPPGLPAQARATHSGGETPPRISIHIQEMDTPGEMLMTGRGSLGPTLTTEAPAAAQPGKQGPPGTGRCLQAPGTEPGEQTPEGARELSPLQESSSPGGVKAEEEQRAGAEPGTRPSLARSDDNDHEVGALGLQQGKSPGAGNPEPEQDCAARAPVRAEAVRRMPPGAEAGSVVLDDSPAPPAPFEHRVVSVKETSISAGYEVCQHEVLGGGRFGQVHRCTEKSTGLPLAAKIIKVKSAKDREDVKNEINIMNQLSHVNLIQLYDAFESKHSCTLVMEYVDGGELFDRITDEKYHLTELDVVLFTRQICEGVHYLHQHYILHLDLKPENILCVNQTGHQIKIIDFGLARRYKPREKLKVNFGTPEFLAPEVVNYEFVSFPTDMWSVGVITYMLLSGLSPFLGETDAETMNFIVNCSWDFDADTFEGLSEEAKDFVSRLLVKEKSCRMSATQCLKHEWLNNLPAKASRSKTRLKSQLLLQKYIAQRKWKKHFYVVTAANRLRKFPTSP

[18] = target: Insulin receptor-related protein (Homo sapiens) (UniProt P14616)
[19] = target: Receptor tyrosine-protein kinase erbB-4 (Homo sapiens) (UniProt Q15303)
Chain of Receptor tyrosine-protein kinase erbB-4 (Homo sapiens) (Q15303 whole entry): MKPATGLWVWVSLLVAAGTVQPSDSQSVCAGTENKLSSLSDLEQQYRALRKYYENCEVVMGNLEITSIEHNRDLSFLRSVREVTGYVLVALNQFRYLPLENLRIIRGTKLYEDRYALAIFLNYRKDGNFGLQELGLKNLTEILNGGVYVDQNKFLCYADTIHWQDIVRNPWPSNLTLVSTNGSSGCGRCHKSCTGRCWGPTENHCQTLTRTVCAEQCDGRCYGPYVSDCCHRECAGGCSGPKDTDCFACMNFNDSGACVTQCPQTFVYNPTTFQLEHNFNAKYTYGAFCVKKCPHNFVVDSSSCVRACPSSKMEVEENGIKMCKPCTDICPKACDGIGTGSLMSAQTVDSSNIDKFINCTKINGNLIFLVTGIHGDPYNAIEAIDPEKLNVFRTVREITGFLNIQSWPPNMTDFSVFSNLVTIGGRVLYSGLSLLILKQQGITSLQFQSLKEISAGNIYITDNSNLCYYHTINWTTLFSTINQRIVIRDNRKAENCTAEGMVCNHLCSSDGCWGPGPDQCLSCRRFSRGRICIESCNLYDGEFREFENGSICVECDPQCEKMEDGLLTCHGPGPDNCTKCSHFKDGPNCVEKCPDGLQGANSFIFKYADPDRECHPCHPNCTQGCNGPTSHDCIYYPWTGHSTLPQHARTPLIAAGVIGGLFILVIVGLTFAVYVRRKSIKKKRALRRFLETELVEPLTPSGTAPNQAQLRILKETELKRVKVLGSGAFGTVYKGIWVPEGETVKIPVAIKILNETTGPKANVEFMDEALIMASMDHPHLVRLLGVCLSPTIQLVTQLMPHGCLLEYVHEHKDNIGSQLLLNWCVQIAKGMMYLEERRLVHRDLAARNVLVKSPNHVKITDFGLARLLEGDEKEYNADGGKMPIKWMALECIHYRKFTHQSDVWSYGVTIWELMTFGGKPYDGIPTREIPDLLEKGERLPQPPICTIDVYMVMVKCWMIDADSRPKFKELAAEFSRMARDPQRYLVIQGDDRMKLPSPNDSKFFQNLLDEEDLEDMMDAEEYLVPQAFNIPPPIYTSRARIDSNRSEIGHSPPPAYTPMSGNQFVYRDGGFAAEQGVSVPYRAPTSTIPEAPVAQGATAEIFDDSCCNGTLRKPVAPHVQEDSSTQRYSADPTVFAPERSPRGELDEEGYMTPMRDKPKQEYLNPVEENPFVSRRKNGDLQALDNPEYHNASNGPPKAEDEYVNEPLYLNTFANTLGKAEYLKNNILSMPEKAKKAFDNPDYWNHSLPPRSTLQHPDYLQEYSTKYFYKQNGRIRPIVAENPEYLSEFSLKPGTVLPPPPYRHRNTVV

[20] = target: Protein kinase C eta type (Homo sapiens) (UniProt P24723)
[21] = target: Ribosomal protein S6 kinase alpha-2 (Homo sapiens) (UniProt Q15349)
Chain of Ribosomal protein S6 kinase alpha-2 (Homo sapiens) (Q15349 whole entry): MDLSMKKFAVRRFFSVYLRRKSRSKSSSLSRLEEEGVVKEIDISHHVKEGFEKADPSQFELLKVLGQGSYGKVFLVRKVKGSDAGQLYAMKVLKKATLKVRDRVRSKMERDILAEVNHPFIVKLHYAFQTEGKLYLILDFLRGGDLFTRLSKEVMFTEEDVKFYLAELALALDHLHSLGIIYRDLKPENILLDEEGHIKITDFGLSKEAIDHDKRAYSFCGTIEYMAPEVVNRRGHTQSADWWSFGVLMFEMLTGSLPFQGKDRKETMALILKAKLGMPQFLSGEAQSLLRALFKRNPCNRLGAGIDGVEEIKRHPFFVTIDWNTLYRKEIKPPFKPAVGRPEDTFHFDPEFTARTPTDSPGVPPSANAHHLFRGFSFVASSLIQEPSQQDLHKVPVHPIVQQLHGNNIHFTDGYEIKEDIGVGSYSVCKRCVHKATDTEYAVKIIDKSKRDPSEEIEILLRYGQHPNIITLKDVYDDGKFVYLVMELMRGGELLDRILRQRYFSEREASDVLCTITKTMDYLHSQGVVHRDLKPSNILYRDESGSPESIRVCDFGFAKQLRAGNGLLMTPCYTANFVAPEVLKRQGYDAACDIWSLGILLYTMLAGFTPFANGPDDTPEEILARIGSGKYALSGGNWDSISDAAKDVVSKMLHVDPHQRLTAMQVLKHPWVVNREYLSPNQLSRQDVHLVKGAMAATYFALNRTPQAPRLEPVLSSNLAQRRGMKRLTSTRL

[22] = target: Focal adhesion kinase 1 (Homo sapiens) (UniProt Q05397)
Chain of Focal adhesion kinase 1 (Homo sapiens) (Q05397 2-1052 limits assumed): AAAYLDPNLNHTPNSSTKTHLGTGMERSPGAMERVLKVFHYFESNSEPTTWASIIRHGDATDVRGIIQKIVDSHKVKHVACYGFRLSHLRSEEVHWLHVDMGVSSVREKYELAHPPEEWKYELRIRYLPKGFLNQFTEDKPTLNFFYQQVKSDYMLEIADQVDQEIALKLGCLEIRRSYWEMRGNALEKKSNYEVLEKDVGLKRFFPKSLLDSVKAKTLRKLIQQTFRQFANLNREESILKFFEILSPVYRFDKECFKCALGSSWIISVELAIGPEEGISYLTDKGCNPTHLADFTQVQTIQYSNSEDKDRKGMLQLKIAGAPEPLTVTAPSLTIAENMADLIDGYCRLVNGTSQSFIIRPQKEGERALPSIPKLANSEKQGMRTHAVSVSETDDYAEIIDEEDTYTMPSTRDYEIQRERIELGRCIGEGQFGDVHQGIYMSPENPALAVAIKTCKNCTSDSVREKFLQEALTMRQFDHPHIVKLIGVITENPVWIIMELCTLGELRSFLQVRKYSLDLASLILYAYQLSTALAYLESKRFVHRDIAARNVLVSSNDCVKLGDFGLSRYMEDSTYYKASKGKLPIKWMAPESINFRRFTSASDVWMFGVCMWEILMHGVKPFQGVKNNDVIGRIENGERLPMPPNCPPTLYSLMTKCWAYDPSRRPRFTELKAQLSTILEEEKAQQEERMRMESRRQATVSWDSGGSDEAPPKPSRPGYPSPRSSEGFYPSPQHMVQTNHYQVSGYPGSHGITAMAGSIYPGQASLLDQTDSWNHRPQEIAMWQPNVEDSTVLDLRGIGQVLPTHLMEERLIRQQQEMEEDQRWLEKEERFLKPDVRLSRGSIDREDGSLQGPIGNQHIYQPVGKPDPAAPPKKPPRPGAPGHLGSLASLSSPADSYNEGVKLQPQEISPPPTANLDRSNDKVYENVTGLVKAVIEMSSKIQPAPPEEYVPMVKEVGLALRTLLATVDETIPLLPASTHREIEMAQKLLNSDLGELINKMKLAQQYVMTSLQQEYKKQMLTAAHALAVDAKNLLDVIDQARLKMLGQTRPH

[23] = target: RAC-alpha serine/threonine-protein kinase (Homo sapiens) (UniProt P31749)
[24] = target: Myosin-IIIb (Homo sapiens) (UniProt Q8WXR4)
[25] = target: T3, Activin receptor type-1B (Homo sapiens) (UniProt P36896)
T3 sequence (whole entry): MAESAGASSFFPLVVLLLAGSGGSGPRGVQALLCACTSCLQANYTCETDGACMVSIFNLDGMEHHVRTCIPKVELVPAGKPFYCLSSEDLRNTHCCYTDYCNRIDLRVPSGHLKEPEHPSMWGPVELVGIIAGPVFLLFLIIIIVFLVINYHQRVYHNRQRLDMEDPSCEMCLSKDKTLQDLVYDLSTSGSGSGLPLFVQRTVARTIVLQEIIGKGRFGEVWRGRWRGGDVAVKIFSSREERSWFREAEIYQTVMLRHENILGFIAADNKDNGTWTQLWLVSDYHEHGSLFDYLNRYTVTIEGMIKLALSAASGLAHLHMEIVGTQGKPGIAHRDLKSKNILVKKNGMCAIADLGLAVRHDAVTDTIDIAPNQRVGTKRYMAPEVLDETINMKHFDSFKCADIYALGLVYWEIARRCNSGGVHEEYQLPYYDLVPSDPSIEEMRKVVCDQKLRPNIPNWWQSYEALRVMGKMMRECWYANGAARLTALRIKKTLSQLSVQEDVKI

[26] = Compound concentration 100.0 nM
[27] = Compound concentration 1000.0 nM

Compound C[C@@H]1CN(c2cc(-c3n[nH]c4ccc(OC5(C)CC5)cc34)ncn2)C[C@H](C)O1 [MLi-2] has a residual activity [1, 26] of 93%, a residual activity [2, 26] of 89% and a residual activity [3, 26] of 100%. The residual activity [4, 26] was 100%, the residual activity [5, 26] was 79% and the residual activity [6, 26] was 94%. The residual activity [7, 26] was 100%, the residual activity [8, 26] was 73% and the residual activity [9, 26] was 93%. The residual activity [10, 26] was 77%, the residual activity [11, 26] was 97% and the inhibition [12] was 7.93%. The residual activity [13, 26] was 100%, the Ki [14] was 4.6 µM and the residual activity [15, 26] was 0%. The residual activity [16, 26] was 100%, the residual activity [17, 26] was 87% and the residual activity [18, 26] was 57%. For the same compound, the residual activity [19, 26] was 90%, the residual activity [20, 26] was 92% and the residual activity [21, 26] was 100%. It also gave a residual activity [22, 26] of 81%, a residual activity [23, 26] of 87% and a residual activity [24, 26] of 89%. It also gave a residual activity [25, 26] of 90%.

C[C@@H]1CN(c2cc(-c3nn(C)c4ccc(OC5(C)CC5)cc34)ncn2)C[C@H](C)O1 [MLi-2-NC] gave a residual activity [1, 27] of 73%, a residual activity [2, 27] of 100% and a residual activity [3, 27] of 88%. For the same compound, the residual activity [4, 27] was 85%, the residual activity [5, 27] was 69% and the residual activity [6, 27] was 80%. It also gave a residual activity [7, 27] of 100%, a residual activity [8, 27] of 86% and a residual activity [9, 27] of 100%. For the same compound, the residual activity [10, 27] was 80%, the residual activity [11, 27] was 100% and the inhibition [12] was 6.03%. It also gave a residual activity [13, 27] of 100%, a Ki [14] of 1.07 µM and a residual activity [15, 27] of 91%. It also gave a residual activity [16, 27] of 80%, a residual activity [17, 27] of 97% and a residual activity [18, 27] of 91%. For the same compound, the residual activity [19, 27] was 96%, the residual activity [20, 27] was 100% and the residual activity [21, 27] was 100%. For the same compound, the residual activity [22, 27] was 95%, the residual activity [23, 27] was 100% and the residual activity [24, 27] was 100%. It also gave a residual activity [25, 27] of 78%.
